Laboratory results taken from PubChem BioAssay (NCI).
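48-hour exposure; five concentrations; linearly interpolated endpoints. TGI is the concentration that stops growth completely.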

Key:
Test in all cases: NCI tumour cell line growth inhibition, 48 h
LOX IMVI melanoma = system: LOX IMVI melanoma
HOP-62 NSCLC = system: HOP-62 NSCLC
CAKI-1 renal = system: CAKI-1 renal
ACHN renal = system: ACHN renal
K-562 leukemia = system: K-562 leukemia
M14 melanoma = system: M14 melanoma
CCRF-CEM leukemia = system: CCRF-CEM leukemia
XF 498 CNS = system: XF 498 CNS
SK-MEL-28 melanoma = system: SK-MEL-28 melanoma
DU-145 prostate = system: DU-145 prostate
M19-MEL melanoma = system: M19-MEL melanoma
NCI-H23 lung = system: NCI-H23 lung
MDA-MB-231 breast = system: MDA-MB-231 breast
DMS 273 small cell lung = system: DMS 273 small cell lung
MDA-N = system: MDA-N
OVCAR-4 ovarian = system: OVCAR-4 ovarian
A549 NSCLC = system: A549 NSCLC
UO-31 renal = system: UO-31 renal
LXFL 529 NSCLC = system: LXFL 529 NSCLC
T-47D breast = system: T-47D breast
SF-295 CNS = system: SF-295 CNS
BT-549 breast = system: BT-549 breast
SNB-75 CNS = system: SNB-75 CNS
HCT-15 colon = system: HCT-15 colon
UACC-257 melanoma = system: UACC-257 melanoma
DMS 114 small cell lung = system: DMS 114 small cell lung
COLO 205 colon = system: COLO 205 colon
A498 renal = system: A498 renal
SNB-78 CNS = system: SNB-78 CNS
TK-10 renal = system: TK-10 renal
SK-OV-3 ovarian = system: SK-OV-3 ovarian
SF-539 CNS = system: SF-539 CNS
UACC-62 melanoma = system: UACC-62 melanoma
HOP-92 NSCLC = system: HOP-92 NSCLC
NCI-H522 lung = system: NCI-H522 lung
HCC-2998 colon = system: HCC-2998 colon
SW-620 colon = system: SW-620 colon
SK-MEL-2 melanoma = system: SK-MEL-2 melanoma
HOP-18 NSCLC = system: HOP-18 NSCLC
DLD-1 colon = system: DLD-1 colon
NCI/ADR-RES ovarian = system: NCI/ADR-RES ovarian
OVCAR-5 ovarian = system: OVCAR-5 ovarian
SN12C renal = system: SN12C renal
HT29 colon = system: HT29 colon
RXF-631 renal = system: RXF-631 renal
OVCAR-3 ovarian = system: OVCAR-3 ovarian
SNB-19 CNS = system: SNB-19 CNS
MOLT-4 leukemia = system: MOLT-4 leukemia
MALME-3M melanoma = system: MALME-3M melanoma
SR leukemia = system: SR leukemia
786-0 renal = system: 786-0 renal
HS 578T breast = system: HS 578T breast
RXF 393 renal = system: RXF 393 renal
NCI-H460 lung = system: NCI-H460 lung
NCI-H226 lung = system: NCI-H226 lung
SK-MEL-5 melanoma = system: SK-MEL-5 melanoma
U251 CNS = system: U251 CNS
HCT-116 colon = system: HCT-116 colon
KM20L2 colon = system: KM20L2 colon
IGROV1 ovarian = system: IGROV1 ovarian
HL-60(TB) leukemia = system: HL-60(TB) leukemia
OVCAR-8 ovarian = system: OVCAR-8 ovarian
EKVX NSCLC = system: EKVX NSCLC
MCF7 breast = system: MCF7 breast
KM12 colon = system: KM12 colon
SF-268 CNS = system: SF-268 CNS
RPMI-8226 leukemia = system: RPMI-8226 leukemia
P388/ADR leukemia = system: P388/ADR leukemia
P388 leukemia = system: P388 leukemia
SN12K1 renal = system: SN12K1 renal

SMILES: COc1ccccc1/C=C1\CCC(Cc2ccccc2)(CN(C)C)C1=O (stereo not drawn)
- TGI (LOX IMVI melanoma): 29.4 µM
- TGI (HOP-62 NSCLC): > 69 µM
- TGI (CAKI-1 renal): 51.8 µM
- TGI (ACHN renal): > 100 µM
- TGI (K-562 leukemia): > 34.5 µM
- TGI (M14 melanoma): 34.9 µM
- TGI (CCRF-CEM leukemia): 24.4 µM
- TGI (XF 498 CNS): > 72.6 µM
- TGI (SK-MEL-28 melanoma): > 100 µM
- TGI (DU-145 prostate): > 100 µM
- TGI (M19-MEL melanoma): > 58.9 µM
- TGI (NCI-H23 lung): > 100 µM
- TGI (MDA-MB-231 breast): 46.7 µM
- TGI (DMS 273 small cell lung): 2.48 µM
- TGI (MDA-N): 3.12 µM
- TGI (OVCAR-4 ovarian): > 100 µM
- TGI (A549 NSCLC): > 100 µM
- TGI (UO-31 renal): > 100 µM
- TGI (LXFL 529 NSCLC): > 52.3 µM
- TGI (T-47D breast): > 100 µM
- TGI (SF-295 CNS): > 63.1 µM
- TGI (BT-549 breast): 40.5 µM
- TGI (SNB-75 CNS): > 88.9 µM
- TGI (HCT-15 colon): 14.4 µM
- TGI (UACC-257 melanoma): > 100 µM
- TGI (DMS 114 small cell lung): > 36.2 µM
- TGI (COLO 205 colon): 7.82 µM
- TGI (A498 renal): 27.6 µM
- TGI (SNB-78 CNS): > 23.2 µM
- TGI (TK-10 renal): > 77.7 µM
- TGI (SK-OV-3 ovarian): > 42.2 µM
- TGI (SF-539 CNS): 5.89 µM
- TGI (UACC-62 melanoma): > 26.1 µM
- TGI (HOP-92 NSCLC): 66.2 µM
- TGI (NCI-H522 lung): 2.1 µM
- TGI (HCC-2998 colon): 24.3 µM
- TGI (SW-620 colon): 35.2 µM
- TGI (SK-MEL-2 melanoma): 34.8 µM
- TGI (HOP-18 NSCLC): > 100 µM
- TGI (DLD-1 colon): > 80.4 µM
- TGI (NCI/ADR-RES ovarian): > 100 µM
- TGI (OVCAR-5 ovarian): > 81.9 µM
- TGI (SN12C renal): 50.3 µM
- TGI (HT29 colon): 5.55 µM
- TGI (RXF-631 renal): 9.92 µM
- TGI (OVCAR-3 ovarian): 15.3 µM
- TGI (SNB-19 CNS): > 100 µM
- TGI (MOLT-4 leukemia): 38.9 µM
- TGI (MALME-3M melanoma): > 100 µM
- TGI (SR leukemia): 3.53 µM
- TGI (786-0 renal): 23.4 µM
- TGI (HS 578T breast): > 100 µM
- TGI (RXF 393 renal): 51 µM
- TGI (NCI-H460 lung): 12.8 µM
- TGI (NCI-H226 lung): 80.4 µM
- TGI (SK-MEL-5 melanoma): 11.9 µM
- TGI (U251 CNS): 45.5 µM
- TGI (HCT-116 colon): 39.4 µM
- TGI (KM20L2 colon): 2.34 µM
- TGI (IGROV1 ovarian): > 41.2 µM
- TGI (HL-60(TB) leukemia): 15.1 µM
- TGI (OVCAR-8 ovarian): 22.9 µM
- TGI (EKVX NSCLC): 34.7 µM
- TGI (MCF7 breast): 25.6 µM
- TGI (KM12 colon): 15.9 µM
- TGI (SF-268 CNS): > 100 µM
- TGI (RPMI-8226 leukemia): 39.1 µM

SMILES: O=P1(Oc2ccc(Cl)cc2Cl)Oc2cc3ccccc3cc2O1
- TGI (LOX IMVI melanoma): > 100 µM
- TGI (HOP-62 NSCLC): > 100 µM
- TGI (CAKI-1 renal): > 100 µM
- TGI (P388/ADR leukemia): 64.1 µM
- TGI (K-562 leukemia): > 100 µM
- TGI (CCRF-CEM leukemia): > 100 µM
- TGI (XF 498 CNS): > 100 µM
- TGI (SK-MEL-28 melanoma): > 100 µM
- TGI (NCI-H23 lung): > 100 µM
- TGI (DMS 273 small cell lung): > 100 µM
- TGI (OVCAR-4 ovarian): > 100 µM
- TGI (A549 NSCLC): > 100 µM
- TGI (UO-31 renal): > 100 µM
- TGI (SF-295 CNS): > 100 µM
- TGI (SNB-75 CNS): > 100 µM
- TGI (HCT-15 colon): > 100 µM
- TGI (UACC-257 melanoma): > 100 µM
- TGI (DMS 114 small cell lung): > 89.3 µM
- TGI (COLO 205 colon): > 100 µM
- TGI (A498 renal): > 90.5 µM
- TGI (SNB-78 CNS): > 100 µM
- TGI (SK-OV-3 ovarian): > 100 µM
- TGI (SF-539 CNS): > 100 µM
- TGI (UACC-62 melanoma): > 100 µM
- TGI (HOP-92 NSCLC): > 100 µM
- TGI (NCI-H522 lung): 82.6 µM
- TGI (HCC-2998 colon): 59.6 µM
- TGI (SW-620 colon): > 100 µM
- TGI (SK-MEL-2 melanoma): > 100 µM
- TGI (HOP-18 NSCLC): > 100 µM
- TGI (P388 leukemia): 32.6 µM
- TGI (DLD-1 colon): > 100 µM
- TGI (NCI/ADR-RES ovarian): > 100 µM
- TGI (OVCAR-5 ovarian): > 100 µM
- TGI (SN12C renal): > 100 µM
- TGI (HT29 colon): > 100 µM
- TGI (OVCAR-3 ovarian): > 60.7 µM
- TGI (SNB-19 CNS): > 100 µM
- TGI (MOLT-4 leukemia): > 71.4 µM
- TGI (MALME-3M melanoma): > 100 µM
- TGI (RXF 393 renal): > 100 µM
- TGI (NCI-H460 lung): > 100 µM
- TGI (NCI-H226 lung): > 100 µM
- TGI (SK-MEL-5 melanoma): > 100 µM
- TGI (U251 CNS): > 100 µM
- TGI (HCT-116 colon): > 100 µM
- TGI (KM20L2 colon): > 100 µM
- TGI (IGROV1 ovarian): > 100 µM
- TGI (HL-60(TB) leukemia): 50.8 µM
- TGI (OVCAR-8 ovarian): > 100 µM
- TGI (EKVX NSCLC): > 100 µM
- TGI (MCF7 breast): > 74.4 µM
- TGI (KM12 colon): > 100 µM
- TGI (SN12K1 renal): > 100 µM
- TGI (SF-268 CNS): > 100 µM
- TGI (RPMI-8226 leukemia): > 60.1 µM
